What was measured:
Assay in all cases: relative viability (nuclei count vs DMSO), 5 days (fraction); higher = more cells survive
BX 795 + Alpelisib = compound: O=C(NCCCNc1nc(Nc2cccc(NC(=O)N3CCCC3)c2)ncc1I)c1cccs1 [BX 795] + Cc1nc(NC(=O)N2CCC[C@H]2C(N)=O)sc1-c1ccnc(C(C)(C)C(F)(F)F)c1 [Alpelisib] (partner 2 µM)
In short: (§1)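 Relative viability is defined as nuclei in treated wells over nuclei in vehicle wells. Duplicate plates were run and medians reported. Lung cancer cell lines in 1536-well plates were dosed by pin tool one day after seeding, with one drug or with a fixed anchor-drug dose plus five library-drug doses (not always all listed) in √10 steps, and nuclei were counted after 5 days.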

BX 795 + Luminespib = compound: O=C(NCCCNc1nc(Nc2cccc(NC(=O)N3CCCC3)c2)ncc1I)c1cccs1 [BX 795] + CCNC(=O)c1noc(-c2cc(C(C)C)c(O)cc2O)c1-c1ccc(CN2CCOCC2)cc1 [Luminespib] (partner 0.01 µM)
In short: as §1

BX 795 + Bortezomib = compound: O=C(NCCCNc1nc(Nc2cccc(NC(=O)N3CCCC3)c2)ncc1I)c1cccs1 [BX 795] + CC(C)C[C@H](NC(=O)[C@H](Cc1ccccc1)NC(=O)c1cnccn1)B(O)O [Bortezomib] (partner 0.002 µM)
In short: as §1

BX 795 + Lapatinib = compound: O=C(NCCCNc1nc(Nc2cccc(NC(=O)N3CCCC3)c2)ncc1I)c1cccs1 [BX 795] + CS(=O)(=O)CCNCc1ccc(-c2ccc3ncnc(Nc4ccc(OCc5cccc(F)c5)c(Cl)c4)c3c2)o1 [Lapatinib] (partner 2 µM)
In short: as §1

BX 795 + OSI-027 = compound: O=C(NCCCNc1nc(Nc2cccc(NC(=O)N3CCCC3)c2)ncc1I)c1cccs1 [BX 795] + COc1cccc2cc(-c3nc([C@H]4CC[C@H](C(=O)O)CC4)n4ncnc(N)c34)[nH]c12 [OSI-027] (partner 0.5 µM)
In short: as §1

Cell Line | relative viability (BX 795 + Alpelisib; first compound 0.04 µM) | relative viability (BX 795 + Alpelisib; first compound 0.1265 µM) | relative viability (BX 795 + Alpelisib; first compound 0.4 µM) | relative viability (BX 795 + Alpelisib; first compound 1.265 µM) | relative viability (BX 795 + Luminespib; first compound 0.04 µM) | relative viability (BX 795 + Luminespib; first compound 0.1265 µM) | relative viability (BX 795 + Luminespib; first compound 0.4 µM) | relative viability (BX 795 + Luminespib; first compound 1.265 µM) | relative viability (BX 795 + Bortezomib; first compound 0.04 µM) | relative viability (BX 795 + Bortezomib; first compound 0.1265 µM) | relative viability (BX 795 + Bortezomib; first compound 0.4 µM) | relative viability (BX 795 + Bortezomib; first compound 1.265 µM) | relative viability (BX 795 + Lapatinib; first compound 0.04 µM) | relative viability (BX 795 + Lapatinib; first compound 0.1265 µM) | relative viability (BX 795 + Lapatinib; first compound 0.4 µM) | relative viability (BX 795 + Lapatinib; first compound 1.265 µM) | relative viability (BX 795 + OSI-027; first compound 0.04 µM) | relative viability (BX 795 + OSI-027; first compound 0.1265 µM) | relative viability (BX 795 + OSI-027; first compound 0.4 µM) | relative viability (BX 795 + OSI-027; first compound 1.265 µM)
NCI-H838 | 0.944 | 1.03 | 0.995 | 0.412 | 0.255 | 0.292 | 0.226 | 0.181 | 0.841 | 0.792 | 0.719 | 0.401 | 0.87 | 0.943 | 0.736 | 0.424 | 0.386 | 0.338 | 0.379 | 0.303
NCI-H1355 | 0.833 | 0.808 | 0.914 | 0.781 | 0.721 | 0.787 | 0.874 | 0.579 | 1.23 | 1.22 | 1.31 | 1.22 | 1.05 | 0.976 | 1.11 | 0.946 | 0.407 | 0.405 | 0.44 | 0.379
BEN | 1.06 | 1.16 | 1.06 | 0.995 | 0.458 | 0.432 | 0.351 | 0.312 | 0.805 | 0.783 | 0.842 | 0.873 | 0.663 | 0.841 | 0.607 | 0.672 | 0.264 | 0.297 | 0.257 | 0.26
A-427 | 1.1 | 1.1 | 1.1 | 1.03 | 0.779 | 0.866 | 0.643 | 0.665 | 0.972 | 0.964 | 1.02 | 0.866 | 0.842 | 1 | 1.06 | 0.886 | 0.514 | 0.476 | 0.51 | 0.299
LXF-289 | 1.06 | 1.04 | 1.11 | 0.693 | 0.707 | 0.693 | 0.828 | 0.51 | 0.981 | 1 | 0.977 | 0.967 | 0.867 | 0.896 | 0.904 | 0.843 | 0.793 | 0.898 | 0.959 | 0.681
COR-L23 | 0.882 | 0.838 | 0.98 | 0.356 | 0.576 | 0.573 | 0.71 | 0.197 | 1.1 | 1.02 | 0.916 | 0.979 | 1.14 | 1.17 | 0.884 | 0.663 | 0.843 | 0.769 | 0.82 | 0.501
NCI-H647 | 1.13 | 1.18 | 1.31 | 0.522 | 0.149 | 0.134 | 0.104 | 0.105 | 0.913 | 1.11 | 0.801 | 0.3 | 1.08 | 1.21 | 0.941 | 0.362 | 0.723 | 0.826 | 0.581 | 0.584
NCI-H2087 | 1.08 | 1.18 | 1.29 | 0.752 | 0.188 | 0.199 | 0.157 | 0.147 | 0.952 | 0.898 | 1.18 | 0.719 | 1.24 | 1.05 | 1.08 | 0.975 | 0.793 | 0.82 | 0.848 | 0.502

Source: the supplement of paper PMC10307832
